In patent publication US9290459B1, “Substituted bicyclic dihydropyrimidinones and their use as inhibitors of neutrophil elastase activity” (Boehringer Ingelheim International GmbH, priority 2013, dated 2016):
Converted amounts (≈) assume the structure as drawn. Where two headings read alike, the source gives them in different places.

How the values were obtained:
[1] = Aqueous solubility; type: physicochemical; settings: McIlvaine buffer pH 6.8, 2.5% DMSO, 24 h shaking; for solubility at 24 h: McIlvaine buffer pH 6.8 with 2.5% DMSO, pH 6.8, aqueous buffer, kinetic from dmso stock
Method: Assay for Determination of Aqueous Solubility […] After 24 h of shaking, the solutions or suspensions are filtered and analyzed by LC-UV. The amount dissolved in buffer is compared to the amount dissolved in the acetonitrile/water (1/1) solution.

[2] = target: Human neutrophil elastase (Homo sapiens (Human), UniProt P08246); test: Human Neutrophil Elastase Assay; type: biochemical; settings: human neutrophil elastase, substrate MeOSuc-Ala-Ala-Pro-Val-AMC 250 μM, pH 7.5; read-out: IC50
Human neutrophil elastase, sequence (P08246 30-247): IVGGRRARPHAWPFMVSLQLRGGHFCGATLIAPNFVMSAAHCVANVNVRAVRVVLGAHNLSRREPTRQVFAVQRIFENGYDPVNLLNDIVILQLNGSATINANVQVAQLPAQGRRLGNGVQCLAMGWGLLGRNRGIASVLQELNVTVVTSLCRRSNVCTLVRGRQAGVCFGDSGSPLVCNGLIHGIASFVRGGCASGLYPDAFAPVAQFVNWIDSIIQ

[3] = target: neutrophil elastase in human plasma (Homo sapiens (Human), UniProt P08246); test: Neutrophil elastase inhibitory activity in human plasma (zymosan-stimulated blood); type: biochemical; settings: neutrophil elastase enriched human plasma from zymosan-stimulated blood; read-out: EC50
neutrophil elastase in human plasma, sequence (P08246 30-247): as above

[4] = Metabolic stability with human liver microsomes; type: in vitro ADME; settings: for half-life at 1 μM: pH 7.6
[5] = Drug transport across human Caco-2 cells; type: in vitro ADME; settings: human; for Papp A→B at 10 µM / Papp B→A at 10 µM: Caco-2, pH 7.2, Caco-2 monolayers, pH 7.2, 37° C.; for Papp A→B at 10 µM: apical-to-basal, read-out: PEAB; for Papp B→A at 10 µM: basal-to-apical, read-out: PEBA; for efflux ratio at 10 μM: Caco-2, pH 7.2, PEBA/PEAB, Caco-2
[6] = pooled human liver microsomes, 1 mg/ml protein, 1 μM test compound, 37° C., NADPH

Aqueous solubility [1] [µg/mL]	IC50 [2] [nM]	EC50 [3] [nM]	t1/2 INVITRO [4, 6] [h]	solubility at 24 h [1] [µg/mL]	Papp A→B at 10 µM [5] [×10⁻⁶ cm/s]	Papp B→A at 10 µM [5] [×10⁻⁶ cm/s]	efflux ratio at 10 μM [5]	half-life at 1 μM ([4]; human, microsomes) [h]	half-life at 1 μM ([4]; pooled human liver microsomes, 1 mg/ml protein, 1 μM test compound, 37° C., NADPH, read-out: t1/2 INVITRO) [h]	SMILES
				70 (≈ 170 µM)	87	69				CN1C(=O)N(c2cccc(C(F)(F)F)c2)C2=C(C(=O)CC2)[C@H]1c1ccc(C#N)cc1 [Example 2A, (R)-4-(3-Methyl-2,5-dioxo-1-(3-(trifluoromethyl)phenyl)-2,3,4,5,6,7-hexahydro-1H-cyclopenta[d]pyrimidin-4-yl)benzonitrile]
	1.3	2		89 (≈ 167 µM)				> 2.17		CS(=O)(=O)c1cc(C#N)ccc1C1C2=C(CCC2=O)N(c2cccc(C(F)(F)F)c2)C(=O)N1CC(=O)O (stereo not drawn) [Example 19, 2-(4-(4-Cyano-2-(methylsulfonyl)phenyl)-2,5-dioxo-1-(3-(trifluoromethyl)phenyl)-6,7-dihydro-1H-cyclopenta[d]pyrimidin-3(2H,4H,5H)-yl)acetic acid]
	< 1	1		87 (≈ 147 µM)				> 2.17		CN(CCO)C(=O)CN1C(=O)N(c2cccc(C(F)(F)F)c2)C2=C(C(=O)CC2)C1c1ccc(C#N)cc1S(C)(=O)=O (stereo not drawn) [Example 21, 2-(4-(4-Cyano-2-(methylsulfonyl)phenyl)-2,5-dioxo-1-(3-(trifluoromethyl)phenyl)-6,7-dihydro-1H-cyclopenta[d]pyrimidin-3(2H,4H,5H)-yl)-N-(2-hydroxyethyl)-N-methyl-acetamide]
	1.6	2			62.5	85.6	1.4	> 2.17		CCN1C(=O)N(c2cccc(C(F)(F)F)c2)C2=C(C(=O)CC2)C1c1ccc(C#N)cc1S(C)(=O)=O (stereo not drawn) [Example 24, 4-(3-Ethyl-2,5-dioxo-1-(3-(trifluoromethyl)phenyl)-2,3,4,5,6,7-hexahydro-1H-cyclopenta[d]pyrimidin-4-yl)-3-(methylsulfonyl)benzonitrile]
64			1.67							CS(=O)(=O)c1cc(C#N)ccc1C1C2=C(CCC2=O)N(c2cccc(C(F)(F)F)c2)C(=O)N1CCCO (stereo not drawn) [Example 24.1]
				79 (≈ 161 µM)	11.8	66.2			> 2.17	CN1C(=O)N(c2ccnc(C(F)(F)F)c2)C2=C(C(=O)CC2)C1c1ccc(C#N)cc1S(C)(=O)=O (stereo not drawn) [Example 29, 4-(3-Methyl-2,5-dioxo-1-(2-(trifluoromethyl)pyridin-4-yl)-2,3,4,5,6,7-hexahydro-1H-cyclopenta[d]pyrimidin-4-yl)-3-(methylsulfonyl)benzonitrile]
	4.2	14			80.9	69.5	0.9	> 2.17		CCOC(=O)N1C(=O)N(c2cccc(C(F)(F)F)c2)C2=C(C(=O)CC2)C1c1ccc(C#N)cc1 (stereo not drawn) [Example 31, Ethyl 4-(4-Cyanophenyl)-2,5-dioxo-1-(3-(trifluoromethyl)phenyl)-4,5,6,7-tetrahydro-1H-cyclopenta[d]pyrimidine-3(2H)-carboxylate]
	2.7	7			56.9	73.8	1.3	> 2.17		CCS(=O)(=O)N1C(=O)N(c2cccc(C(F)(F)F)c2)C2=C(C(=O)CC2)C1c1ccc(C#N)cc1 (stereo not drawn) [Example 35, 4-(3-(Ethylsulfonyl)-2,5-dioxo-1-(3-(trifluoromethyl)phenyl)-2,3,4,5,6,7-hexahydro-1H-cyclopenta[d]pyrimidin-4-yl)benzonitrile]
	9.3	17			84.9	99.8	1.2			CS(=O)(=O)N1C(=O)N(c2cccc(C(F)(F)F)c2)C2=C(C(=O)CC2)C1c1ccc(C#N)cc1Cl (stereo not drawn) [Example 37.2]
	1.7			21 (≈ 37 µM)				> 2.17		CCS(=O)(=O)c1cc(C#N)ccc1C1C2=C(CCC2=O)N(c2cccc(C(F)(F)F)c2)C(=O)N1S(C)(=O)=O (stereo not drawn) [Example 37.4]
	< 1	4			83.1	64.8	0.8	> 2.17		CNC(=O)N1C(=O)N(c2cccc(C(F)(F)F)c2)C2=C(C(=O)CC2)[C@H]1c1ccc(C#N)cc1F [Example 49A, (S)-4-(4-Cyano-2-fluorophenyl)-N-methyl-2,5-dioxo-1-(3-(trifluoromethyl)phenyl)-4,5,6,7-tetrahydro-1H-cyclopenta[d]pyrimidine-3(2H)-carboxamide]

The next lines start with the molecule.

SMILES	Aqueous solubility [1] [µg/mL]	IC50 [2] [nM]	EC50 [3] [nM]	t1/2 INVITRO [4, 6] [h]	solubility at 24 h [1] [µg/mL]	Papp A→B at 10 µM [5] [×10⁻⁶ cm/s]	Papp B→A at 10 µM [5] [×10⁻⁶ cm/s]	efflux ratio at 10 μM [5]	half-life at 1 μM ([4]; human, microsomes) [h]	half-life at 1 μM ([4]; pooled human liver microsomes, 1 mg/ml protein, 1 μM test compound, 37° C., NADPH, read-out: t1/2 INVITRO) [h]
CCNC(=O)N1C(=O)N(c2ccnc(C(F)(F)F)c2)C2=C(C(=O)CC2)C1c1ccc(C#N)cc1 (racemic) [Example 54.2]	44	3.3	< 1	>2.17						
C[S+]([O-])CCNC(=O)N1C(=O)N(c2cccc(C(F)(F)F)c2)C2=C(C(=O)CC2)C1c1ccc(C#N)cc1 (stereo not drawn) [Example 7.6]	94			>2.17						
CCS(=O)(=O)c1cc(C#N)ccc1[C@H]1NC(=O)N(c2cccc(C(F)(F)F)c2)C2=C1C(=O)CC2 [Example 14A, (S)-4-(2,5-Dioxo-1-(3-(trifluoromethyl)phenyl)-2,3,4,5,6,7-hexahydro-1H-cyclopenta[d]pyrimidin-4-yl)-3-(ethylsulfonyl)benzonitrile]		1.2	1		62 (≈ 127 µM)	10.3	94.8	9.2	> 2.17	
CS(=O)(=O)c1cc(C#N)ccc1C1NC(=O)N(c2ccnc(C(F)(F)F)c2)C2=C1C(=O)CC2 (stereo not drawn) [Example 15.6, 4-(2,5-dioxo-1-(2-(trifluoromethyl)pyridin-4-yl)-2,3,4,5,6,7-hexahydro-1H-cyclopenta[d]-pyrimidin-4-yl)-3-(methylsulfonyl)benzonitrile]		43.6			76 (≈ 160 µM)				> 2.17	
N#Cc1ccc(C2C3=C(CCC3=O)N(c3cccc(C(F)(F)F)c3)C(=O)N2C(=O)N[C@@H]2CCC[C@H]2O)cc1 (stereo partly drawn) [Example 42.3]					20 (≈ 38.1 µM)	36.2	86	2.4	> 2.17	
N#Cc1ccc([C@@H]2C3=C(CCC3=O)N(c3cccc(C(F)(F)F)c3)C(=O)N2C(=O)N[C@H]2CCC[C@@H]2O)cc1 [Example 45.4]					28 (≈ 53.4 µM)	38.1	77.2	2	> 2.17	
N#Cc1ccc([C@@H]2C3=C(CCC3=O)N(c3cccc(C(F)(F)F)c3)C(=O)N2C(=O)NC2CCS(=O)(=O)CC2)cc1 [Example 46, (R)-4-(4-Cyanophenyl)-2,5-dioxo-N-(1,1-dioxo-hexahydro-1λ^6-thiopyran-4-yl)-1-(3-(trifluoromethyl)phenyl)-4,5,6,7-tetrahydro-1H-cyclopenta[d]pyrimidine-3(2H)-carboxamide]	10			>2.17						
N#Cc1ccc(C2C3=C(CCC3=O)N(c3cccc(C(F)F)c3)C(=O)N2C(=O)NCCO)cc1 (stereo not drawn) [Example 52.3]		< 1	< 1		91 (≈ 195 µM)				> 2.17	
CC(C)(O)CNC(=O)N1C(=O)N(c2ccnc(C(F)(F)F)c2)C2=C(C(=O)CC2)C1c1ccc(C#N)cc1 (stereo not drawn) [Example 55, 4-(4-Cyanophenyl)-N-(2-hydroxy-2-methylpropyl)-2,5-dioxo-1-(2-(trifluoromethyl)-pyridin-4-yl)-4,5,6,7-tetrahydro-1H-cyclopenta[d]pyrimidine-3(2H)-carboxamide]		6.1	3						> 2.17	
